According to patent US20240383856A1 (Zedira GmbH, priority 2021, published 2024):
Blank lines part the entries; values can stand above or below the molecule they belong to.

How the values were obtained:
[1] = logD by shake flask method (octanol / PBS pH 7.4, HPLC); type: physicochemical; conditions: octanol / PBS pH 7.4, shake flask
Procedure, shortened: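 LogD obtained by HPLC measurement of how the compound distributes between PBS (pH 7.4) and octanol in a shake-flask experiment.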

[2] = biological target: T1, recombinant human transglutaminase 2 (Homo sapiens, UniProt P21980); test: Transglutaminase assay (DCC-assay): incorporation of dansylcadaverine into dimethylcasein; type: biochemical; conditions: recombinant human TG2 10 nM; dansylcadaverine incorporation into dimethylcasein; read-out: IC50 TG2
T1 construct: purchased Zedira T022
T1 sequence (P21980 1-687): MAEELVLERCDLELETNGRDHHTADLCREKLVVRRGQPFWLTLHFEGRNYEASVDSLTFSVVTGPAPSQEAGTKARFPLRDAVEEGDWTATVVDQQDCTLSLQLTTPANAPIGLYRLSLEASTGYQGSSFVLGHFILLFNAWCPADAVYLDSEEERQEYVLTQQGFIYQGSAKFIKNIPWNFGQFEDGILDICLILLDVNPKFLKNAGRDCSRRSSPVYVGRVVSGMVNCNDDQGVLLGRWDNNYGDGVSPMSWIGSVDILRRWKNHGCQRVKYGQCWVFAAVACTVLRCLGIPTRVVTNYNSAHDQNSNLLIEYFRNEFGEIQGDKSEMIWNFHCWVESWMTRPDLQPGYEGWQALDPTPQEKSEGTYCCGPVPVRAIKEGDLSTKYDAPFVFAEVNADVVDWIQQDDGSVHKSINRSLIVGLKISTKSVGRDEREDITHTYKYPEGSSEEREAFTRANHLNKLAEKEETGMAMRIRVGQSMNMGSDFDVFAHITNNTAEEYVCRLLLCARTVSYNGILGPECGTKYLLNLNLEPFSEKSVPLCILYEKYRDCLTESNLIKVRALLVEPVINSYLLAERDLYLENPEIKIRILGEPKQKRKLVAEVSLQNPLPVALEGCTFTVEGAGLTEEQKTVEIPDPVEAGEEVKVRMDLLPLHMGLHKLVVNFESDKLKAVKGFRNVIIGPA
Procedure, shortened: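 IC50 is the inhibitor level that blocks 50% of initial activity. Activity is the fluorescence slope (λex 330, λem 500 nm) between 20 and 30 min of a 37 °C run, relative to a 2% DMSO control. The enzyme is recombinant human tissue transglutaminase, 10 nM final, tested against a 1:2 inhibitor dilution series in a pH 8.0 mix with 10 mM CaCl2, 10 mM glutathione, 16.7 µM dansylcadaverine and 4 µM N,N-dimethylcasein.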

[3] = Caco-2 permeability assay (CacoReady kit); type: in vitro ADME; conditions: human, Caco-2, Caco-2 barrier, CacoReady kit; above 1×10^−6 cm/s classified as permeable
Procedure, shortened: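 Intestinal permeability modelled with kit-supplied Caco-2 barriers, run as the maker specifies; each compound reported as Papp.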

SMILES: CNC(=O)C(=O)CC[C@H](NC(=O)c1snnc1C)C(=O)Nc1cccn(CC(=O)N[C@@H]2C[C@H]3CC[C@@H]2C3)c1=O [II-152, (S)-N1-(1-(2-((1R,2R,4S)-bicyclo[2.2.1]heptan-2-ylamino)-2-oxoethyl)-2-oxo-1,2-dihydropyridin-3-yl)-N6-methyl-2-(4-methyl-1,2,3-thiadiazole-5-carboxamido)-5-oxohexanediamide]
logD [1]: < 1 | IC50 [2]: 0.04 to 0.4 µM | Papp [3]: < 1 ×10⁻⁶ cm/s

SMILES: CNC(=O)C(=O)CC[C@H](NC(=O)c1sc(C(F)(F)F)nc1C)C(=O)Nc1cccn(CC(=O)N[C@@H]2C[C@@H]3CC[C@H]2C3)c1=O [II-154, (S)-N1-(1-(2-((1S,2R,4R)-bicyclo[2.2.1]heptan-2-ylamino)-2-oxoethyl)-2-oxo-1,2-dihydropyridin-3-yl)-N6-methyl-2-(4-methyl-2-(trifluoromethyl)thiazole-5-carboxamido)-5-oxohexanediamide]
logD [1]: 1 to 3 | IC50 [2]: 0.04 to 0.4 µM | Papp [3]: 1 to 10 ×10⁻⁶ cm/s

SMILES: CNC(=O)C(=O)CC[C@H](NC(=O)c1cc(Cl)sc1Cl)C(=O)Nc1cccn(CC(=O)N[C@@H]2C[C@@H]3CC[C@H]2C3)c1=O [II-155, (S)-N1-(1-(2-((1S,2R,4R)-bicyclo[2.2.1]heptan-2-ylamino)-2-oxoethyl)-2-oxo-1,2-dihydropyridin-3-yl)-2-(2,5-dichlorothiophene-3-carboxamido)-N6-methyl-5-oxohexanediamide]
logD [1]: 1 to 3 | IC50 [2]: < 0.04 µM | Papp [3]: 1 to 10 ×10⁻⁶ cm/s

SMILES: CNC(=O)C(=O)CC[C@H](NC(=O)c1snnc1C)C(=O)Nc1cccn(CC(=O)N[C@@H]2C[C@@H]3CC[C@H]2C3)c1=O [II-156, (S)-N1-(1-(2-((1S,2R,4R)-bicyclo[2.2.1]heptan-2-ylamino)-2-oxoethyl)-2-oxo-1,2-dihydropyridin-3-yl)-N6-methyl-2-(4-methyl-1,2,3-thiadiazole-5-carboxamido)-5-oxohexanediamide]
logD [1]: < 1 | IC50 [2]: 0.04 to 0.4 µM | Papp [3]: < 1 ×10⁻⁶ cm/s

SMILES: CNC(=O)C(=O)CC[C@H](NC(=O)c1sc(C(F)(F)F)nc1C)C(=O)Nc1cccn(CC(=O)N[C@H]2C[C@H]3CC[C@]2(C)C3(C)C)c1=O [II-159, (S)-N1-methyl-5-(4-methyl-2-(trifluoromethyl)thiazole-5-carboxamido)-2-oxo-N6-(2-oxo-1-(2-oxo-2-((1R,2S,4R)-1,7,7-trimethylbicyclo[2.2.1]heptan-2-ylamino)ethyl)-1,2-dihydropyridin-3-yl)hexanediamide]
logD [1]: 1 to 3 | IC50 [2]: 0.04 to 0.4 µM | Papp [3]: 1 to 10 ×10⁻⁶ cm/s

SMILES: CNC(=O)C(=O)CC[C@H](NC(=O)c1cc(Cl)sc1Cl)C(=O)Nc1cccn(CC(=O)N[C@H]2C[C@H]3CC[C@]2(C)C3(C)C)c1=O [II-160, (S)-2-(2,5-dichlorothiophene-3-carboxamido)-N6-methyl-5-oxo-N1-(2-oxo-1-(2-oxo-2-((1R,2S,4R)-1,7,7-trimethylbicyclo[2.2.1]heptan-2-ylamino)ethyl)-1,2-dihydropyridin-3-yl)hexanediamide]
logD [1]: 1 to 3 | IC50 [2]: 0.04 to 0.4 µM | Papp [3]: 1 to 10 ×10⁻⁶ cm/s

SMILES: CNC(=O)C(=O)CC[C@H](NC(=O)c1snnc1C)C(=O)Nc1cccn(CC(=O)N[C@H]2C[C@H]3CC[C@]2(C)C3(C)C)c1=O [II-161, (S)-N1-methyl-5-(4-methyl-1,2,3-thiadiazole-5-carboxamido)-2-oxo-N6-(2-oxo-1-(2-oxo-2-((1R,2S,4R)-1,7,7-trimethylbicyclo[2.2.1]heptan-2-ylamino)ethyl)-1,2-dihydropyridin-3-yl)hexanediamide]
logD [1]: < 1 | IC50 [2]: 0.04 to 0.4 µM | Papp [3]: < 1 ×10⁻⁶ cm/s

SMILES: CNC(=O)C(=O)CC[C@H](NC(=O)c1cnnn1C)C(=O)Nc1cccn(CC(=O)N[C@H]2C[C@H]3CC[C@]2(C)C3(C)C)c1=O [II-162, (S)-N1-methyl-5-(1-methyl-1H-1,2,3-triazole-5-carboxamido)-2-oxo-N6-(2-oxo-1-(2-oxo-2-((1R,2S,4R)-1,7,7-trimethylbicyclo[2.2.1]heptan-2-ylamino)ethyl)-1,2-dihydropyridin-3-yl)hexanediamide]
logD [1]: < 1 | IC50 [2]: 0.04 to 0.4 µM | Papp [3]: < 1 ×10⁻⁶ cm/s

SMILES: CNC(=O)C(=O)CC[C@H](NC(=O)c1ccnn1C)C(=O)Nc1cccn(CC(=O)N[C@H]2C[C@H]3CC[C@]2(C)C3(C)C)c1=O [II-163, (S)-N1-methyl-5-(1-methyl-1H-pyrazole-5-carboxamido)-2-oxo-N6-(2-oxo-1-(2-oxo-2-((1R,2S,4R)-1,7,7-trimethylbicyclo[2.2.1]heptan-2-ylamino)ethyl)-1,2-dihydropyridin-3-yl)hexanediamide]
logD [1]: < 1 | IC50 [2]: 0.04 to 0.4 µM | Papp [3]: < 1 ×10⁻⁶ cm/s

SMILES: CNC(=O)C(=O)CC[C@H](NC(=O)c1oc2ccccc2c1C)C(=O)Nc1cccn(CC(=O)NC23CC(C2)C3)c1=O [II-167, (S)-N1-(1-(2-(bicyclo[1.1.1]pentan-1-ylamino)-2-oxoethyl)-2-oxo-1,2-dihydropyridin-3-yl)-N6-methyl-2-(3-methylbenzofuran-2-carboxamido)-5-oxohexanediamide]
logD [1]: < 1 | IC50 [2]: < 0.04 µM | Papp [3]: 1 to 10 ×10⁻⁶ cm/s

SMILES: CNC(=O)C(=O)CC[C@H](NC(=O)c1coc(C(C)=O)n1)C(=O)Nc1cccn(CC(=O)NC23CC(C2)C3)c1=O [II-168, (S)-2-(2-acetyloxazole-4-carboxamido)-N1-(1-(2-(bicyclo[1.1.1]pentan-1-ylamino)-2-oxoethyl)-2-oxo-1,2-dihydropyridin-3-yl)-N6-methyl-5-oxohexanediamide]
logD [1]: < 1 | IC50 [2]: 0.04 to 0.4 µM | Papp [3]: < 1 ×10⁻⁶ cm/s

SMILES: CNC(=O)C(=O)CC[C@H](NC(=O)c1oc2ccccc2c1C)C(=O)Nc1cccn(CC(=O)NC23CCC(C2)C3)c1=O [II-169, (S)-N1-(1-(2-(bicyclo[2.1.1]hexan-1-ylamino)-2-oxoethyl)-2-oxo-1,2-dihydropyridin-3-yl)-N6-methyl-2-(3-methylbenzofuran-2-carboxamido)-5-oxohexanediamide]
logD [1]: < 1 | IC50 [2]: < 0.04 µM | Papp [3]: 1 to 10 ×10⁻⁶ cm/s

Other lines, results leading:

logD [1]: < 1 | IC50 [2]: 0.4 to 2.5 µM | Papp [3]: < 1 ×10⁻⁶ cm/s
SMILES: CNC(=O)C(=O)CC[C@H](NC(=O)c1ccnn1C)C(=O)Nc1cccn(CC(=O)N[C@@H]2C[C@H]3CC[C@@H]2C3)c1=O [II-153, (S)-N1-(1-(2-((1R,2R,4S)-bicyclo[2.2.1]heptan-2-ylamino)-2-oxoethyl)-2-oxo-1,2-dihydropyridin-3-yl)-N6-methyl-2-(1-methyl-1H-pyrazole-5-carboxamido)-5-oxohexanediamide]

logD [1]: < 1 | IC50 [2]: 0.04 to 0.4 µM | Papp [3]: < 1 ×10⁻⁶ cm/s
SMILES: CNC(=O)C(=O)CC[C@H](NC(=O)c1cnnn1C)C(=O)Nc1cccn(CC(=O)N[C@@H]2C[C@@H]3CC[C@H]2C3)c1=O [II-157, (S)-N1-(1-(2-((1S,2R,4R)-bicyclo[2.2.1]heptan-2-ylamino)-2-oxoethyl)-2-oxo-1,2-dihydropyridin-3-yl)-N6-methyl-2-(1-methyl-1H-1,2,3-triazole-5-carboxamido)-5-oxohexanediamide]

logD [1]: < 1 | IC50 [2]: 0.04 to 0.4 µM | Papp [3]: < 1 ×10⁻⁶ cm/s
SMILES: CNC(=O)C(=O)CC[C@H](NC(=O)c1ccnn1C)C(=O)Nc1cccn(CC(=O)N[C@@H]2C[C@@H]3CC[C@H]2C3)c1=O [II-158, (S)-N1-(1-(2-((1S,2R,4R)-bicyclo[2.2.1]heptan-2-ylamino)-2-oxoethyl)-2-oxo-1,2-dihydropyridin-3-yl)-N6-methyl-2-(1-methyl-1H-pyrazole-5-carboxamido)-5-oxohexanediamide]

logD [1]: 3 to 5 | IC50 [2]: 0.4 to 2.5 µM | Papp [3]: 1 to 10 ×10⁻⁶ cm/s
SMILES: CNC(=O)C(=O)CC[C@H](NC(=O)c1c[nH]cc1C(C)(C)C)C(=O)Nc1cccn(CCC23CC4CC(CC(C4)C2)C3)c1=O [II-164]

logD [1]: 3 to 5 | IC50 [2]: 0.4 to 2.5 µM | Papp [3]: 1 to 10 ×10⁻⁶ cm/s
SMILES: CNC(=O)C(=O)CC[C@H](NC(=O)c1cc(C#N)cn1C)C(=O)Nc1cccn(CCCC23CC4CC(CC(C4)C2)C3)c1=O [II-165]

logD [1]: 1 to 3 | IC50 [2]: 0.4 to 2.5 µM | Papp [3]: 1 to 10 ×10⁻⁶ cm/s
SMILES: CNC(=O)C(=O)CC[C@H](NC(=O)c1ncc(OC)o1)C(=O)Nc1cccn(CCC(=O)NC2C3CC4CC(C3)CC2C4)c1=O (stereo partly drawn) [II-166, (S)-N1-(1-(3-(2-adamantylamino)-3-oxopropyl)-2-oxo-1,2-dihydropyridin-3-yl)-2-(5-methoxyoxazole-2-carboxamido)-N6-methyl-5-oxohexanediamide]
